Assay results taken from article PMC12338828, “Evaluation of organotin (IV) dithiocarbamate compounds as potential anti-leukemia agents towards CCRF-CEM (CCL-119) cell line: Cytotoxic, apoptotic, cell cycle and genotoxic study” (PLOS One, 2025).
Values joined by “and” are separate entries in the source; they are usually repeats but may differ in a detail not shown here. Equal values may be shown once. Read-outs that look alike come from different tables or passages of the source.

Key:
WIL2-NS cells = test system: WIL2-NS cells; parameters: method as in Rasli et al. (2023); conditions: non-cancerous cells; 24 hours of exposure; graph referred to earlier paper; ref Rasli et al. (2023); cited from earlier work
CCL-119 cells [1] = assay: MTT cytotoxicity assay; conditions: for cell viability at 0.31 µM / cell viability at 0.63 µM / cell viability at 1.25 µM / cell viability at 2.50 µM / cell viability at 5.00 µM / Selectivity Index (SI): 24 hours; for cell viability at 0.31 µM / cell viability at 0.63 µM / cell viability at 1.25 µM / cell viability at 2.50 µM / cell viability at 5.00 µM: single replicates n1-n3, untreated = 100.00; for cell viability at 2.50 µM: 2.5 µM; for IC50: read-out: IC50 (µM) CCL-119, 24 hours of exposure, mean ± SEM, n = 3; for Selectivity Index (SI): IC50 WIL2-NS / IC50 CCL-119
Experimental: The T-acute lymphoblastic leukemia cell line, CCRF-CEM (CCL-119™), and a non-cancerous cell, WIL2-NS (CRL-8155™), were purchased from the American Type Culture Collection (ATCC). Both are suspension types of cells and were cultured in Roswell Park Memorial Institute Medium 1640 (RPMI-1640) (Sigma-Aldrich), supplemented with 10% Fetal Bovine Serum (FBS) (Capricorn Scientific) and 1% penicillin-streptomycin (Nacalai Tesque) to obtain the complete growth medium and were incubated at 37 °C with a 5% CO2 incubator. Both suspension cells are used for tests when the cells’ passage becomes passage 3–10 (maximum).
All stock solutions of the organotin (IV) dithiocarbamate compounds were prepared at 10 mM and dissolved in dimethyl sulphoxide (DMSO) (ChemAR®). The stock solutions were stored at 4°C; fresh dilutions were made by adding the RPMI-1640 medium before the experiment. The dilution is carried out using the serial dilution method to obtain the desired concentrations, which are 5 µM, 2.5 µM, 1.25 µM, 0.63 µM, 0.32 µM, and 0.16 µM in this study. Vincristine (VCR) is used as a positive control in this study.
Both CCL-119 and WIL2-NS cells were seeded in a 96-well plate at a final concentration of 5 x 10^5 cells/well and treated with 5 µM, 2.5 µM, 1.25 µM, 0.63 µM, 0.32 µM, and 0.16 µM of organotin (IV) dithiocarbamate compound for 24 hours at 37°C with 5% CO2. VCR was used as a positive control in this study, while cells without treatment were used as a negative control. After 24 hours of exposure, 20 µL of MTT (Merck) salt solution was added into each well and incubated for another 4 hours. The plate was wrapped with aluminium foil as MTT salt is light sensitive. After 4 hours, the purple crystal formazan was formed. All the medium was removed carefully from each well, and 200 µL DMSO was added to each well to dissolve the purple formazan crystal. Then, the plates were incubated for an additional 15 minutes. The results were analyzed and recorded using an ELISA microplate reader at 570 nm. The data was then plotted into a graph, and IC50 values were determined.
The selectivity index (SI) is determined by dividing the cytotoxic activity (IC50 value) of each compound on a non-cancerous cell line (WIL2-NS) by the leukemia cell line (CCL-119). […] WIL2- NS cell lines were selected as the comparator because it is a non-cancerous human B lymphoblast cell line, which is like CCL-119 (T-lymphoblastic leukemia), derived from lymphocytes. This choice ensures that comparisons are made between biologically similar cell types, minimizing variability that could arise from differences in tissue origin or lineage.

CCL-119 cells [2] = assay: Mode of cell death, Annexin V-FITC/PI staining (flow cytometry); format: cell-based; conditions: for Early Apoptosis (Q4) / Late Apoptosis (Q2) / Necrosis (Q1) / Viable (Q3): 24 hours at IC50, single replicates n1-n3; for cell death through apoptosis (population of cells): 24 hours, treated at IC50, early + late apoptosis
Experimental: The mode of cell death can be observed through the Annexin V-FITC/PI staining (BD, USA). The result of this test is either apoptosis or necrosis. […] VCR was used as a positive control, while cells without any treatment were used as a negative control. Then, the plate was incubated for 24 hours. After the incubation, the cell suspension in each well was collected into different Eppendorf tubes. The tubes were then centrifuged for 5 minutes at 1500 rpm at 4°C. After the centrifuge, the supernatant in the tubes was removed, and the cell pellets were washed twice with cold PBS. Then, centrifuge the tubes again and remove the supernatant. Next, 100 µL of Annexin V binding buffer was resuspended in each tube, and 5 µL Annexin V-FITC was pipetted into the tube to stain the cells for 15 minutes at room temperature, dark. After that, 5 µL of propidium iodide was piped into the tube for 5 minutes. The staining process is done in dark conditions. Lastly, the sample was transferred into the Falcon tube, and each tube was resuspended in 400 µL of Annexin V binding buffer. The sample was analyzed using a flow cytometer (BD FACS Canto II) within one hour.

CCL-119 cells [3] = assay: Cell cycle analysis (PI/RNase staining); format: cell-based; conditions: for cells in G0/G1 phase / cells in G2/M phase / cells in S phase: 24 hours at IC50, single replicates n1-n3
Experimental: The cells were cultured and seeded in a 6-well plate at 1 x 10^6 cells/mL. VCR was used as a positive control, and untreated cells were used as a negative control in this assay. The concentration of the compounds and VCR was followed by IC50 values that were taken from the MTT assay.
After 24 hours of incubation, all cells in the plate were transferred to the Eppendorf tube and centrifuged for 5 minutes at 4°C at 1500 rpm. After centrifuging, the supernatant was removed, and cells were washed with 500 µL cold PBS three times. The pellet was fixed by using 70% ethanol overnight at −20°C. Next, the samples were stained with 500 µL of PI/RNase staining buffer and incubated for 15 minutes. The samples were then transferred into Falcon tubes. The data was recorded using a flow cytometer and analyzed using ModFit LT software.

CCL-119 cells [4] = assay: Alkaline comet assay; format: cell-based
Experimental: VCR was used as a positive control, and untreated cells were used as a negative control in this assay. The cells were incubated for 1 hour. After incubation, cells in each well were transferred to the Eppendorf tube to centrifuge for 5 minutes at 4°C by using a refrigerated microcentrifuge. The supernatant was removed, and the samples were washed with 1 mL of cold PBS. This process was repeated 3 times. After completion of the process, the supernatant was removed, and the pellet was left for a while on top of the ice while preparing the slide.
About 140 µL of normal melting agar (NMA) is pipetted on top of the fully frosted slide, and a cover slip is put on the agar for 5 minutes or until the agar fully solidifies. After that, the cover slip was removed, and 80 µL of low melting agar (LMA) was added to an Eppendorf tube containing the pellet of cells. The suspension was then transferred into a frosted slide with NMA agar. The cover slip was then put back on top of the frosted slide for 10 minutes or until dry. Next, the slide was transferred into a Coplin jar that contained lysis buffer solution and Triton X-100. The slides were then incubated at 4°C overnight. The slides were arranged on an electrophoresis tank filled with electrophoresis buffer for 20 minutes. Electrophoresis is done for another 20 minutes at 25 V with 300 mA. The slides were washed with a neutralization buffer solution 3 times at a 5-minute time interval. Finally, 30 µL of ethidium bromide (50 µg/mL) was added, and the slide was observed by using fluorescence microscopy (OLYMPUS BX51TR). CometScore software is used to analyze the DNA damage of the cells. The comet assay was performed under alkaline conditions (pH > 13) to detect both single- and double-strand DNA breaks.

[5] = 1 hour of exposure, single replicates n1-n3

SMILES	IC50 (WIL2-NS cells)	cell viability at 0.31 µM (CCL-119 cells [1])	cell viability at 0.63 µM (CCL-119 cells [1])	cell viability at 1.25 µM (CCL-119 cells [1])	cell viability at 2.50 µM (CCL-119 cells [1])	cell viability at 5.00 µM (CCL-119 cells [1])	IC50 (CCL-119 cells [1])	Early Apoptosis (Q4) (CCL-119 cells [2])	Late Apoptosis (Q2) (CCL-119 cells [2])	Necrosis (Q1) (CCL-119 cells [2])	Viable (Q3) (CCL-119 cells [2])	cell death through apoptosis (population of cells) (CCL-119 cells [2])	cells in G0/G1 phase (CCL-119 cells [3])	cells in G2/M phase (CCL-119 cells [3])	cells in S phase (CCL-119 cells [3])	% DNA intensity (CCL-119 cells [4]; [5])	Tail moment (CCL-119 cells [4]; [5])	Selectivity Index (SI) (CCL-119 cells [1])	DNA damage / genotoxic effect (in words) (CCL-119 cells [4])	DNA damage class (CCL-119 cells [4]; 1 hour of exposure)	further results
CCN(CC)C(=S)[S][Sn]([CH3])([CH3])[S]C(=S)N(CC)CC [ODTC 7, dimethyltin (IV) diethyl dithiocarbamate]	0.5 ± 0.34 µM	53.85% and 25.00% and 27.93%	22.79% and 38.51% and 14.94%	25.40% and 25.00% and 5.26%	11.18% and 20.05% and 9.03%	4.79% and 42.34% and 14.76%	0.5 ± 0.3 µM	24.7% and 24.4% and 29.9%	70.3% and 71.5% and 65.3%	0.7% and 0.4%	4.4% and 3.7% and 4.2%	95.6%	70.20% and 67.80% and 60.00%	1.80% and 0.20% and 1.00%	28.00% and 32.00% and 39.00%	6.521% and 7.002% and 7.823%	5.822 A.U and 6.511 A.U and 7.52 A.U	–	–	–	DNA damage / genotoxic effect (in words) (CCL-119 cells [4]; 1 hour of exposure, damage when TM > 5 A.U. and TI > 10%): no DNA damage
C=CCN(CC=C)C(=S)[S][Sn]([S]C(=S)N(CC=C)CC=C)([c]1ccccc1)[c]1ccccc1 [ODTC 2, diphenyltin (IV) diallyl dithiocarbamate]	0.52 ± 0.14 µM	49.85% and 27.71% and 26.10%	26.34% and 15.19% and 17.94%	29.61% and 16.46% and 16.39%	28.76% and 19.14% and 15.77%	31.88% and 17.53% and 10.93%	0.22 ± 0.04 µM	36.1% and 39.2% and 31.1%	31.5% and 32.9% and 28.1%	1% and 0.6%	31.4% and 27% and 40.2%	66.3%	51.19% and 55.53% and 53.01%	1.93% and 1.68% and 4.38%	46.88% and 42.78% and 42.61%	9.179% and 9.419% and 11.9522%	5.421 A.U and 3.237 A.U and 11.8306 A.U	2.36	caused detectable DNA damage	class 2	Tail moment (CCL-119 cells [4]; 1 hour of exposure, mean ± SEM): 6.83 ± 2.58 A.U; percentage of DNA intensity in the tail (CCL-119 cells [4]; 1 hour of exposure, mean ± SEM): 10.18 ± 0.89%
CC(C)N(C(=S)[S][Sn]([S]C(=S)N(C(C)C)C(C)C)([c]1ccccc1)[c]1ccccc1)C(C)C [ODTC 1, diphenyltin (IV) diisopropyl dithiocarbamate]	1.39 ± 0.46 µM	68.12% and 70.47% and 62.95%	46.30% and 50.11% and 43.95%	30.25% and 39.66% and 27.67%	11.95% and 23.57% and 13.38%	8.78% and 22.56% and 11.96%	0.56 ± 0.04 µM	45.2% and 37.2% and 40.2%	34.7% and 29.3%	0.2% and 1% and 0.6%	28.4% and 29.5% and 29.9%	77.6%	44.44% and 52.78% and 46.11%	0.17% and 1.28% and 8.00%	55.38% and 45.94% and 45.89%	31.5757% and 23.3927% and 27.534%	74.8179 A.U and 67.3969 A.U and 63.5391 A.U	2.48	highest genotoxic effects	class 3	Phases of Cell Cycle Arrest (CCL-119 cells [3]; 24 hours at IC50 concentrations): S phase; Tail moment (CCL-119 cells [4]; 1 hour of exposure, mean ± SEM): 68.58 ± 3.31 A.U; percentage of DNA intensity in the tail (CCL-119 cells [4]; 1 hour of exposure, mean ± SEM): 27.50 ± 2.36%
